Reference: patent US20250049927A1, “MODIFIED OLIGONUCLEOTIDE-DRUG CONJUGATE AND USE THEREOF” (INTEROLIGO CORPORATION., priority 2021, published 2025)

Legend:
[1] = system: BxPC-3 pancreatic cancer cell lines; experiment: Pancreatic cancer cell growth inhibition, WST assay; type: cell-based; conditions: BxPC-3, 72 hours treatment, absorbance 450 nm
Experimental: The in vitro anticancer efficacy of the modified oligonucleotide-drug conjugates was verified using pancreatic cancer cell lines. Pancreatic cancer cell lines (BxPC-3) were treated with the above-described examples and comparative examples at concentrations of 0, 0.01, 0.1, 1, 10, 100, 500 and 1000 μM, and the specific IC50 measurement method and measurement results are as follows.
All cell lines were cultured in a 5% CO2 incubator at 37° C. The BxPC-3 pancreatic cancer cell lines were cultured using a medium containing 10% FBS and 1% antibiotics put into ATCC modified RPMI-1640 (Thermo Scientific, USA). The medium was replaced once every 2-3 days, and passage-cultured at a time when about 70-90% of a culture dish was filled with the cells. First, the cells were washed with PBS, then 0.05% Trypsin-EDTA was added and cultured at 37° C. for 2 minutes, and then a new medium was added to inactivate trypsin. The cells were separated from trypsin and medium using a centrifuge, then another new medium was added and passaged at a ratio of 1:4, followed by culturing the same. All cells were periodically checked for contamination by mycoplasma using a kit (Intron, Korea), and in vitro efficacy evaluation experiments were conducted using only cells in which contamination was not detected.
Using WST reagent (Dongin LS, Korea), an inhibitory effect on pancreatic cancer cell growth by drug treatment was confirmed and IC50 was measured. An orange coloring substance called formazan is produced in WST by mitochondrial dehydrogenase within cells, which is effective only in living cells. The specific test method is as follows.
The cells cultured by the above-described method were dispensed by 2×10^4 into each well of a 96-well culture vessel and cultured for 24 hours. The medium of the cells attached to the culture vessel was replaced with an ATCC modified RPMI-1640 medium containing 5% FBS, and samples of the above-described modified oligonucleotide-drug conjugates (Examples 1-7 and 9-12, and Comparative Example 1-7, respectively) were treated at concentrations of 0, 0.01, 0.1, 1, 10, 100, 500 and 1000 μM. After 72 hours, 10 μl of WST reagent was added to each well and reacted for 2 hours. The produced formazan was measured with an absorbance at 450 nm using a Glomax plate meter (Promega, USA), and IC50 was evaluated according to the protocol in the device. IC50 evaluation results and graphs illustrating the same are shown in Table 2 below and FIGS. 19 to 27 (in Table 2, M=Gemcitabine, and N=5-FdU).

in vivo = conditions: male, Sprague-Dawley, rat, iv, 2 mg/kg
Experimental: Specifically, Sprague-Dawley male rats (8 weeks old, purchased from Youngbio) were acclimatized for 1 week in the animal room of the Catholic University Songsim Campus, and then pharmacokinetic experiments were performed. Rats were induced with isoflurane, an inhalation anesthetic, and PE50 (polyethylene tubing, Clay Adams, Becton Dickinson, NJ, USA) was inserted into the carotid (for blood collection) and jugular vein (for drug administration), followed by suturing with suture, and then end portions thereof were fixed to the back of the neck. During the surgery, anesthesia was maintained using ether, and about 0.5 mL of physiological saline solution containing heparin (20 units/mL) was injected to prevent blood from coagulating in the cannula. After completing the surgery, each rat was placed in a metabolic cage and allowed to fully recover from the anesthetic (for 4-5 hours). Then, the rats were divided into three groups of a group administered with Example 9 (IO176) alone (n=6), and a group administered with MMAE alone (n=7), and a group administered with gemcitabine alone (n=6), and each sample (Example 9, MMAE alone, gemcitabine alone) was administered into the rats. All of Example 9, MMAE and gemcitabine were dissolved in physiological saline at 2 mL per kg of body weight and administered into the jugular vein at doses of 40 mg/kg, 4 mg/kg and 2 mg/kg, respectively. When collecting blood, in order to prevent gemcitabine in 0.2 mL of blood from being converted into metabolites by cytidine deaminase, a light-shielding Eppendorf tube was prepared in which 2 μL of a solution containing tetrahydrouridine (hereinafter referred to as THU), a cytidine deaminase inhibitor, dissolved in distilled water at a concentration of 10 mg/mL was added in advance. […] Immediately after completing the blood collection, the plasma that had been stored in an ice-bath was quickly centrifuged at 4° C., and 100 μL of the plasma was dispensed into the light-shielding Eppendorf tube. The dispensed plasma was quickly stored in an ice-bath and maintained at −80° C. until LC-MS/MS analysis was performed. After collection of blood from the carotid, the rats were euthanized in a CO2 gas chamber.
• Analysis equipment: Agilent 1290 series HPLC, Qtrap 5500 LC-MS/MS • Detector: Tandem mass spectrometer (triple quadrouple type) • Ion source: Electrospray ionization (positive ion mode) • Desolvation temperature: 500° C. • Nebulizing gas: Nitrogen, Collision gas: Nitrogen • Quantitation: MRM (multiple reaction monitoring) mode • Stationary phase: Hypersil gold C18 column (2.1×100 mm, 1.9 μm, Thermo) Fisher Scientific Inc., Boston, USA) • Stationary phase temperature: 40° C. • Mobile phase: Distilled water (A) and acetonitrile (B) respectively containing 0.1% formic acid (95:5, v/v) (see [Table below) • Flow rate: 0.22 mL/min • Mass parameters: See [Table 8] below (CE: Collision energy)
Each of gemcitabine and dFdU standard product was dissolved in distilled water to prepare 400 μg/mL and 700 μg/mL of storage solutions and store them frozen. Then, the storage solutions were diluted with tertiary distilled water to prepare working solutions so that the concentrations were 0.200, 0.400, 0.800, 2.00, 10.0 and 40.0 μg/mL, respectively, followed by storing them in a refrigerator. 5′-Deoxy-5-fluorocytidine, an internal standard (IS), was dissolved in acetonitrile to prepare 50 ng/mL of working solution. The working solution of gemcitabine and dFdU was added to rat blank plasma containing THU to prepare standard plasma samples so that the plasma concentrations of gemcitabine and dFdU were 10, 20, 40, 100, 500 and 2000 ng/mL, respectively.
150 μL of 5′-Deoxy-5-fluorocytidine (50 ng/mL), the internal standard dissolved in acetonitrile, was added to 20 μL of rat plasma, and vortexed for 10 minutes, followed by centrifuging at 14,000 rpm at 4° C. for 5 minutes.

Molecule: Example 6: paclitaxel conjugated to U of GGTGGTGGTGGTUGTGGTGGTGGMGG (SEQ ID NO: 9), M=Gemcitabine; linker -acrylamide-C6-NH-succinic acid- (DNA GGTGGTGGTGGTNGTGGTGGTGGNGG; paclitaxel via linker; gemcitabine at M; modified_base 13 OTHER; deoxyuridine(dU); modified_base 24 OTHER; gemcitabine)
- IC50 [1]: 0.14 µM

Molecule: Comparative Example 1: control aptamer GGTGGTGGTGGTTGTGGTGGTGGTGG (SEQ ID NO: 1)
- IC50 [1]: 89.9 µM

Molecule: Example 2 (GGTGGTGGTGGNTNTGGTGGTGGTGG; paclitaxel via acrylamide-C6-NH-succinic acid linker; modified_base 12 OTHER; deoxyuridine(dU); modified_base 14 OTHER; gemcitabine)
- IC50 [1]: 0.23 µM

Molecule: Comparative Example 2 (GGTGGTGGTGGTTGNGGTGGTGGTGG; paclitaxel conjugate; modified_base 15 OTHER; deoxyuridine(dU)-acrylamide-C6-NH2)
- IC50 [1]: 4.59 µM

Molecule: Comparative Example 6: DM1 conjugated to U of GGTGGTGGTGGTUGTGGTGGTGGTGG (SEQ ID NO: 3); linker -acrylamide-C6-NH-SMCC- (DNA ggtggtggtggtngtggtggtggtgg; DM1 via acrylamide-C6-NH-SMCC linker; modified_base 13 OTHER; deoxyuridine(dU))
- IC50 [1]: 3.01 µM

Molecule: Example 3 (GGTGGTGGTGGTNNTGGTGGTGGTGG; paclitaxel via acrylamide-C6-NH-succinic acid linker on U; modified_base 13 OTHER; deoxyuridine(dU); modified_base 14 OTHER; gemcitabine)
- IC50 [1]: 1 µM

Molecule: Example 7 (GGTGGTGGTGGTTGNGGTGGTGGNGG; paclitaxel via acrylamide-C6-NH-succinic acid linker on U; modified_base 15 OTHER; deoxyuridine(dU); modified_base 24 OTHER; gemcitabine)
- IC50 [1]: 0.11 µM

Molecule: Comparative Example 3 (GGTGGTGGTGGTNGTGGTGGTGGTGG; paclitaxel via acrylamide-C6-NH-succinic acid linker; modified_base 13 OTHER; deoxyuridine(dU)-acrylamide-C6-NH2)
- IC50 [1]: 0.04 µM

Molecule: Nc1ccn([C@@H]2O[C@H](CO)[C@@H](O)C2(F)F)c(=O)n1 [Gemcitabine, 2′,2′-difluoro-2′-deoxycytidine]
- Vd (in vivo; in vivo): 2.73 ± 1.22 L/kg
- AUC(0-inf) (in vivo; plasma): 7.5 µg·h/mL
- AUC(0-t) (in vivo; plasma): 7.3 µg·h/mL
- MRT (in vivo; plasma): 5.7 h
- clearance (in vivo; plasma): 0.286 ± 0.0858 L/h/kg
- half-life (in vivo; plasma): 6.8 ± 2.78 h

Molecule: Example 11: DM1 conjugated to U of GGTGGTGGTGGMUGMGGTGGTGGTGG (SEQ ID NO: 8), M=Gemcitabine; linker -acrylamide-C6-NH-SMCC- (DNA GGTGGTGGTGGNNGNGGTGGTGGTGG; gemcitabine nucleotides; DM1 via SMCC linker; modified_base 13 OTHER; deoxyuridine(dU); modified_base 12 OTHER; gemcitabine; modified_base 15 OTHER)
- IC50 [1]: 26.7 µM

Molecule: Example 1: paclitaxel conjugated to U of GGTGGTGGTGGUMGTGGTGGTGGTGG (SEQ ID NO: 4), M=Gemcitabine; linker -acrylamide-C6-NH-succinic acid- (DNA GGTGGTGGTGGNNGTGGTGGTGGTGG; paclitaxel via linker; gemcitabine at M; modified_base 12 OTHER; deoxyuridine(dU); modified_base 13 OTHER; Gemcitabine)
- IC50 [1]: 2.21 µM
